Results as given in US20230017312A1, “CENTRALLY ACTIVE P38ALPHA INHIBITING COMPOUNDS” (Synovo GmbH, priority 2019, published 2023).

Assays:
TNFa [1] = assay: LPS-stimulated TNFa production, BL6 Blood; format: cell-based; details: compound 100 nM
IL-6 [2] = assay: LPS-stimulated IL-6 production, hBuffy Coat; format: cell-based, human; details: compound 1 nM
Experimental: (§1) The substances can be tested by mixing them with immune cells subject to stimulus and measuring the resulting inflammatory response. A standard assay involves the application of lipopolysaccharide (e.g. 10 μg/mL) to human blood derived immune cells and then detecting the concentration of cytokines (IL-6, TNFa) after 24 h. When tested in this way, the described compounds have the following effects as recorded in Table 2.

IL-6 [3] = assay: LPS-stimulated IL-6 production, spleen; format: cell-based; details: compound 10 nM
TNFa [4] = assay: LPS-stimulated TNFa production, spleen; format: cell-based; details: compound 10 nM
TNFa [5] = assay: LPS-stimulated TNFa production, hBuffy Coat; format: cell-based, human; details: compound 1 nM
Experimental: as §1

IL-6 [6] = assay: LPS-stimulated IL-6 production, BL6 Blood; format: cell-based; details: compound 100 nM

melting point	Structure (SMILES)	Amount of cytokine produced as % control: TNFa BL6 Blood (500 ng LPS) 100 nM (TNFa [1])	Amount of cytokine produced as % control: IL-6 hBuffy Coat (100 ng LPS) 1 nM (IL-6 [2])	Amount of cytokine produced as % control: IL_6 Spleen (100 ng LPS) 10 nM (IL-6 [3])	Amount of cytokine produced as % control: TNFa Spleen (100 ng LPS) 10 nM (TNFa [4])	Amount of cytokine produced as % control: TNFa hBuffy Coat (100 ng LPS) 1 nM (TNFa [5])	Amount of cytokine produced as % control: IL-6 BL6 Blood (500 ng LPS) 100 nM (IL-6 [6])
–	C[S+]([O-])c1ccc(-c2nc(-c3ccncc3)c(-c3ccc(F)cc3)[nH]2)cc1 (stereo not shown) [SB203580]	4 % control	61 % control	10 % control	11 % control	85 % control	22 % control
162.7 °C	COC(=O)c1ccc2c(c1)C(=O)c1ccc(Nc3ccc(F)cc3F)cc1OC2 [Compound 15a, 3-((2,4-Difluorophenyl)amino)-11-oxo-6,11-dihydrobenzo[b,e]oxepin-9-carboxylmethylester]	–	–	–	–	–	–
